These results are taken from ChEMBL document CHEMBL1126162, “A steric and electrostatic comparison of three models for the agonist/antagonist binding site on the adenosine A1 receptor” (J Med Chem, 1992).

“And” between values parts separate entries of the source, which are not always exact repeats. Equal entries are not always repeated.

This experiment addresses T1, Adenosine receptor A1 (Rattus norvegicus, UniProt P25099).
T1 sequence (P25099 whole entry): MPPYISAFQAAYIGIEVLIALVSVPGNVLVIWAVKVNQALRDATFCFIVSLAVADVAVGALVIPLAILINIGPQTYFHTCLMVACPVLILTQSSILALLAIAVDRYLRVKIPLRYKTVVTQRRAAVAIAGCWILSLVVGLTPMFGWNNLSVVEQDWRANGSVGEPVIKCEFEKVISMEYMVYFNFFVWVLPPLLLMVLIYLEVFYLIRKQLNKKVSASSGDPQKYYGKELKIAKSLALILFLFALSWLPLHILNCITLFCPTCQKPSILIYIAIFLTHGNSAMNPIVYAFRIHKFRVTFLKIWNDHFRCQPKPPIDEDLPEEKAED
As to the kind of experiment: Evaluated for binding affinity against Adenosine A1 receptor.

The compound `OC[C@H]1OC(n2cnc3c(Nc4ccc(Cl)cc4)ncnc32)[C@H](O)[C@@H]1O` (stereo partly specified) gave an IC50 of 2.19 nM. Turning to `CCCn1c(=O)c2nc(-c3ccc(OC)cc3)[nH]c2n(CCC)c1=O`, the Ki was 4.57 nM. The compound `CCCc1ccccc1Nc1ncnc2c1ncn2C1O[C@H](CO)[C@@H](O)[C@H]1O` (stereo partly specified) showed an IC50 of 1.2 nM. On the same count and under the same terms, as for `COc1ccccc1Nc1ncnc2c1ncn2C1O[C@H](CO)[C@@H](O)[C@H]1O` (stereo partly specified), the figure is 85.1 nM. The compound `Cc1ccc(Nc2ncnc3c2ncn3C2O[C@H](CO)[C@@H](O)[C@H]2O)cc1` (stereo partly specified) had an IC50 of 4.9 nM.

Consider `CCCc1ccccc1Nc1ncnc2c1ncn2C1OC(CO)[C@@H](O)[C@H]1O` (single isomer, unassigned), for which the 50% inhibitory concentration (IC50) is 52.5 nM. As for `Cc1ccc(-c2nc3c([nH]2)c(=O)n(C)c(=O)n3C)cc1`, the Ki was 0.513 nM. The same measure, in the same setting: as for `CCCn1c(=O)c2[nH]c(-c3ccccc3)nc2n(CCC)c1=O`, the figure is 11 nM; as for `Cc1cccc(-c2nc3c([nH]2)c(=O)n(C)c(=O)n3C)c1`, 5.37 nM. Compound `OC[C@H]1OC(n2cnc3c(Nc4ccc(F)cc4)ncnc32)[C@H](O)[C@@H]1O` (stereo partly specified) gave an IC50 of 2 nM.

For the compound `OC[C@H]1OC(n2cnc3c(NCC4CCCCC4)ncnc32)[C@H](O)[C@@H]1O` (stereo partly specified), the IC50 was 39.8 nM.

With `COc1ccc(Nc2ncnc3c2ncn3[C@@H]2O[C@H](CO)[C@@H](O)[C@H]2O)cc1`, the IC50 is 8.91 nM and 4.57 nM. Take `CCCn1c(=O)c2nc(Cc3ccccc3)[nH]c2n(CCC)c1=O`: the Ki was 891 nM. Turning to `OC[C@H]1O[C@@H](n2cnc3c(NC4CC4)ncnc32)[C@H](O)[C@@H]1O`, the IC50 was 2.09 nM. Turning to `Cn1c(=O)c2[nH]c(-c3ccccc3F)nc2n(C)c1=O`, the affinity, expressed as Ki, was 6.76 nM.

In turn, `Cc1cccc(Nc2ncnc3c2ncn3C2O[C@H](CO)[C@@H](O)[C@H]2O)c1` (stereo partly specified) had an IC50 of 26.9 nM. `OC[C@H]1O[C@@H](n2cnc3c(Nc4ccccc4)ncnc32)[C@H](O)[C@@H]1O` [N6-PHENYLADENOSINE] had an IC50 of 3.31 nM. The compound `CCCn1c(=O)c2[nH]c(CC3CCCCC3)nc2n(CCC)c1=O` gave a Ki of 38.9 nM. Take `Cc1ccccc1Nc1ncnc2c1ncn2C1O[C@H](CO)[C@@H](O)[C@H]1O` (stereo partly specified): the IC50 is 8.91 nM.

In the case of `OC[C@H]1OC(n2cnc3c(Nc4ccccc4F)ncnc32)[C@H](O)[C@@H]1O` (stereo partly specified), the IC50 is 3.98 nM. The same measure, in the same setting: to `COc1cccc(Nc2ncnc3c2ncn3C2O[C@H](CO)[C@@H](O)[C@H]2O)c1` (stereo partly specified) belongs 46.8 nM; to `OC[C@H]1OC(n2cnc3c(Nc4cccc(F)c4)ncnc32)[C@H](O)[C@@H]1O` (stereo partly specified), 1 nM. Regarding `COc1ccccc1-c1nc2c([nH]1)c(=O)n(C)c(=O)n2C`, the Ki was 191 nM. Consider `Cn1c(=O)c2[nH]c(-c3ccc(Cl)cc3)nc2n(C)c1=O`, for which the Ki is 0.646 nM.

For `Cn1c(=O)c2nc(-c3cccc(F)c3)[nH]c2n(C)c1=O`, the Ki was 2.4 nM. Compared with the last compound, the Ki is about 3.7-fold higher. For `Cn1c(=O)c2[nH]c(-c3ccc(F)cc3)nc2n(C)c1=O`, affinity was put at a Ki of 1.82 nM.
